# Measurements reported in patent US10889553B2, “Asymmetric triazole benzamide derivatives and the compositions and methods of treatment regarding the same” (NysnoBio Ireland DAC, priority 2017, dated 2021).
# Where “and” joins values, the source holds several entries; their conditions need not be identical. Identical values can stand only once.
# Experiments:
# HCT-116 (colon) = experiment: Cancer cell proliferation assay (acid phosphatase); type: cell-based; settings: Homo sapiens, HCT-116, 72 h, Table 6A; 72 hrs; read-out: HCT-116 IC50
# Procedure: (§1) Measurement of the inhibitive effect of compounds on cancer cell proliferation was performed. Various cell lines were tested, including HCT-116 (colon); A549 (lung); TOV-21G (ovarian); Calu-6 (lung); and LS-174T (colon); and cell lines H1703 (Lung) and SKOV3 (ovarian); JEKO-1 (lymophoma); TOV-112D (ovarian) are tested. The assays were performed under the following conditions: Cells are harvested at a concentration of 4×10^4 cells/ml in media. Volumes of 100 μl/well of these cell suspensions were added to a 96 well plate using a multichannel pipette. Plates were gently agitated to ensure an even dispersion of cells over a given plate. Cells were then incubated at 37° C., 5% CO2 overnight. Following this, 100 μl of compound at varying concentrations was added to wells in triplicate. Control wells are those with 100 μl media containing 0.33% DMSO added to cell suspension (this is the equivalent volume of DMSO found in the highest concentration of drug). Plates were then gently agitated, as above, and incubated at 37° C., 5% CO2 for 72 hrs (control wells have reached 80-90% confluency). Assessment of cell proliferation in the presence of the compound was determined by the acid phosphatase assay.
# (§2) Following the incubation period of 72 hrs, media was removed from the plates. Each well on the plate was washed twice with 100 μl PBS. This was then removed and 100 μl of freshly prepared phosphatase substrate (10 mM p-nitrophenol phosphate in 0.1M sodium acetate, 0.1% triton X-100, pH 5.5) was added to each well. The plates were then incubated in the dark at 37° C. for 2 hours. Colour development was monitored during this time. The enzymatic reaction was stopped by the addition of 50 μl of 1N NaOH. The plate was read in a dual beam plate reader at 405 nm with a reference wavelength of 620 nm. The absorbance reading of the latter is subtracted from the former, and the effect of the drug on cell proliferation was then measured as a percentage against the control cells (DMSO), which is taken as 0% inhibition.
# TOV-21G (ovarian) = experiment: Cancer cell proliferation assay (acid phosphatase); type: cell-based; settings: Homo sapiens, TOV21G, 72 h, Table 6A; 72 hrs; read-out: TOV-21G IC50
# Procedure: as §1, §2
# Parkin ligase = molecular target: T1, Parkin ligase (Homo sapiens, UniProt O60260); experiment: Activity-Based Probe Assay using Ubiquitin vinyl sulfone probe (TR-FRET); type: biochemical; settings: heat activated Parkin, HA-Ub-VS probe, activation EC50; read-out: Probe Assay EC50 (μM) [Example 2]
# T1 sequence (O60260 1-465): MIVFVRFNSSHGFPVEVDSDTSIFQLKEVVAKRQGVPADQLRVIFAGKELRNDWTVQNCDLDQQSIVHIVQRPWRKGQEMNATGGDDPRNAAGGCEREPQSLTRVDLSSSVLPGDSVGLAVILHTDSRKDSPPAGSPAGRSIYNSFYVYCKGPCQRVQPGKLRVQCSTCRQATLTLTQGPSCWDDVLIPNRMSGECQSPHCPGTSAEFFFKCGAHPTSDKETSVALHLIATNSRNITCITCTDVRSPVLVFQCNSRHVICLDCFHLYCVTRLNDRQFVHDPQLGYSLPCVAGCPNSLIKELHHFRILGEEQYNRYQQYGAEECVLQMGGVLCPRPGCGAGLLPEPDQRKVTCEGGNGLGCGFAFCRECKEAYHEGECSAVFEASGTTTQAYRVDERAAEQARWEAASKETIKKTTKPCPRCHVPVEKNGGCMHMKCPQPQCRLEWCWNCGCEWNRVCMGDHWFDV
# Procedure: An Ubiquitin vinyl sulfone probe can be used that irreversibly binds to the active site cysteine of Parkin ligase. Covalent attachment of the probe to the Parkin can be monitored by TR-FRET. Candidate activator compounds can be identified by increasing the activity of Parkin ligase due to an increase in TR-FRET signal. Screening for activating compounds can be distinguished from the controls as follows: 100% activation signal=Heat activated Parkin+100 nM control activator in DMSO. 0% activation signal=Heat activated Parkin+DMSO only. Parkin activators can be identified by an increase of the 0% activation signal TR-FRET signal. Assay Conditions: Materials: • Assay Plate: White 384 well plate (Corning 3572) • Enzyme: Parkin-His tagged 203 μM (10.5 mg/ml) • Probe: Ubiquitin vinyl-sulfone (HA-Ub-VS Boston Biochem U-212) • DMSO: DMSO (Sigma cat #D4540-100ML) • Reaction Buffer: 50 mM HEPES (pH 8.5), 150 mM NaCl, 0.01% Tween 20, 0.1% BSA • Detection Buffer: 50 mM HEPES (pH 8.5), 150 mM NaCl, 0.01% Tween 20, 0.1% BSA, 800 mM KF • Detection Reagent A: 2.6 nM Anti-6HIS-Eu cryptate and 40 nM Anti-HA-XL665 in detection buffer • Eu cryptate: Anti-6HIS-Eu cryptate (CisBio 61HISKLA) • XL665: Anti-HA-XL665 (CisBio 610HAXLA) Enzyme Reaction (15 Min Pre Incubation Parkin with Activator Only) • Parkin: 40 nM • HA-Ub-VS Probe: 70 nM • Activator/DMSO: 2× Activator/2% DMSO Reaction time: 60 minutes Temperature: 22° C. Total volume: 10 μl reaction Detection Reaction Take […] of Enzyme Reaction above and add 10 μl detection Reagent A under the following conditions: • Reaction time: 60 minutes • Temperature: 22° C. • Total volume: 20 μl
# Assay procedure (Using HP D-300 compound dispenser and Bravo for the operation):
# 1) Heat activate Parkin in reaction buffer (500 μl/1.5 ml tube: Eppendorf Thermomixer 5 minutes, 400 rpm at 58° C. and put on ice until needed).
# 2) Load assay plate wells with 4.8 μl 84.5 nM Parkin in reaction buffer by use of Bravo.
# 3) Deliver 0.2 μl 200× activator candidates in DMSO by use of HP D-300 compound dispenser. Highest 200× concentration=[…] and then twofold dilutions.
# 4) Spin 1000 rpm, 2 minutes, at room temp.
# 5) Incubate plate for 15 minutes at room temp.
# 6) Add 5 μl 140 nM HA-Ub-VS Probe in reaction buffer by use of Bravo.
# 7) Spin 1000 rpm, 2 minutes, at room temp.
# 8) Incubate plate for 60 minutes at room temp.
# 9) Add 10 μl 2.6 nM Anti-6HIS-Eu cryptate and 40 nM […] in detection buffer.
# 10) Spin 1000 rpm, 2 minutes, at room temp.
# 11) Incubate plate for 60 minutes at room temp.
# 12) Read plates on Perkin Elmer Envision instrument with the following parameters:
# LANCE dual laser protocol loaded into the Envision® software
# Top Mirror: LANCE/DELFIA Duel/Bias (Bar code 446)
# Emission Filter: APC 665 EM (Bar code 205)
# 2nd Emission Filter: Europium 615 EM (Bar code 203)
# Read 655 nm (channel 1) and 615 nm (channel 2) wavelengths on Envision®
# Data Analysis: The Data can be read in CSV files. There are two tables in those CSV files, which are the values of 655 nm (channel 1) and 615 nm (channel 2) wavelengths respectively. The data is converted to an HTRF Ratio=(Channel 1/Channel 2)*10,000
# The average of all the 0 μM controls (DMSO only)=BKGD (Background—0% activation). Subtract BKGD from each HTRF Ratio value=HTRF−BKGD. The average of all the […] 100 nM control activator in DMSO controls=Max (100% activation). The following equation is then used to calculate % Activation for each well/candidate as follows: % Activation=(HTRF−BKGD/Max)*100.
# Graphpad Prism was used with Transform X values: X=Log(X) and nonlinear regression (dose-response-stimulation): Log(agonist) vs Response−variable slope (four parameters) with constrains set to Bottom=0 and Top=100.
# The Activity-Based Probe Assay was performed with various compounds in Tables 1, 2, 3A and 3B.
# [1] = Microsomal stability assay, rat liver microsomes; type: in vitro ADME; settings: pH 7.4; rat liver microsomes 1.0 mg/mL, 1 μM compound, NADPH; read-out: RLM t1/2
# Procedure: Compounds were also tested for metabolic stability in both rat liver microsomes (RLM) and the compounds are tested for human liver microsomes (HLM) and their half-life is calculated (See Tables 5A and 5B). The assay was performed as follows. The total volume for each incubation was 250 μL. A 100 μM DMSO solution of compound (diluted from 10 mM stock solution) was spiked into 50 mM KH2PO4 (pH 7.4) buffer containing liver microsome at a concentration of 1.0 mg/mL. The reaction was initiated by the addition of 50 μL of 1 mM NADPH. The final concentration of each compound was 1 μM (1% DMSO). The positive controls, phenacetin for CYP1A2, diclofenac for CYP2C9, omeprazole for CYP2C19, dextromethorphan for CYP2D6 and midazolam for CYP3A4 were added to a separate tube with the final substrate concentrations of 1 μM (1% DMSO) for evaluating the enzyme activities in the liver microsomes. At 0, 15, 30 and 60 min, an aliquot of 15 μL reaction mixtures were removed and 200 μL of methanol (with internal standard of 25 ng/mL propranolol) was added to quench the reaction. The resulting mixture was centrifuged and supernatant was used for LC-MS/MS analysis.
# The signals for each compound, or the metabolites for the probe substrates and the internal standard were integrated and the peak area ratios to internal standard were generated. Percent parent remaining at a specified timepoint was calculated based on the peak area ratios at time 0 (as 100%) for in vitro metabolic stability studies in liver microsome and hepatocyte. The observed rate constant (kobs) for the metabolism of substrates was calculated by plotting the natural log of percentage substrate remaining versus time of incubation with the slope being kobs. The half-life (T1/2) was calculated according to the following equation: T1/2=[…]
# A549 (lung) = experiment: Cancer cell proliferation assay (acid phosphatase); type: cell-based; settings: Homo sapiens, A549, 72 h, Table 6A; 72 hrs; read-out: A549 IC50
# Procedure: as §1, §2
Structure (SMILES),IC50 (HCT-116 (colon)) [µM],IC50 (TOV-21G (ovarian)) [µM],EC50 (Parkin ligase),half-life at 1 μM [1] [h],IC50 (A549 (lung)) [µM]
Cc1ccccc1C(=O)Nc1nc(NC(=O)c2ccc(F)cc2F)nn1-c1ccccc1 [Compound 150],> 2.5,> 2.5,–,–,–
Cc1ccccc1C(=O)Nc1nc(NC(=O)c2ncccn2)n(-c2ccccc2)n1 [Compound 28],–,–,22 µM,0.333,–
O=C(Nc1nc(NC(=O)c2ccncc2)n(-c2ccc(OC(F)(F)F)cc2)n1)c1ccncc1 [Compound 65],2.5,2.5,5 µM,–,–
Cc1ccccc1C(=O)Nc1nc(NC(C)(C)c2ccccc2)nn1-c1ccccc1 [Compound 152],> 2.5,–,–,–,–
O=C(Nc1nc(NC(=O)c2cccnc2)n(-c2ccc(C(F)(F)F)cc2)n1)c1cccnc1 [Compound 62],2.7,–,8 µM,–,2
Cc1ccccc1C(=O)Nc1nc(NC(=O)c2ccccc2C)n(-c2ccc(N3CCC(O)C3)cc2)n1 (stereo not drawn) [Compound 58],–,2.4,7 µM,–,2.6
Cc1ccccc1C(=O)Nc1nc(NC(=O)c2cocn2)n(-c2ccccc2)n1 [Compound 9],–,–,32 µM,0.967,–
C#Cc1ccccc1C(=O)Nc1nc(NC(=O)c2cccc(N=[N+]=[N-])c2)n(-c2ccccc2)n1 [Compound 8],–,–,4 µM,1.18,–
C#Cc1cccc(C(=O)Nc2nc(NC(=O)c3cccc(N=[N+]=[N-])c3)n(-c3ccccc3)n2)c1 [Compound 11],–,–,2 µM,2.45,–
C#Cc1cccc(C(=O)Nc2nc(NC(=O)c3cccc(N=[N+]=[N-])c3)nn2-c2ccccc2)c1 [Compound 29],–,–,2 µM,0.783,–
O=C(Nc1nc(NC(=O)c2cccnc2)n(-c2ccc(OC(F)(F)F)cc2)n1)c1cccnc1 [Compound 61],2.1,1.4,12 µM and 10 µM and 13 µM,–,–
Cc1ccccc1C(=O)Nc1nc(NC(=O)c2c(F)cc(F)cc2F)nn1-c1ccccc1 [Compound 149],> 2.5,> 2.5,–,–,–
COc1cccc(C(=O)Nc2nc(NC(=O)c3cccc(OC)c3)n(-c3ccccc3)n2)c1 [Compound 27],–,–,3 µM,0.317,–
Cc1ccccc1C(=O)Nc1nc(-c2ccccc2O)nn1-c1ccc(OC(F)(F)F)cc1 [Compound 137],–,–,4 µM,1.22,–
O=C(Nc1nc(NC(=O)c2ccncc2)n(-c2ccc(C(F)(F)F)cc2)n1)c1ccncc1 [Compound 63],2.5,–,3 µM,–,–
Cc1ccccc1C(=O)Nc1nc(NC(=O)c2cccnn2)n(-c2ccccc2)n1 [Compound 13],–,–,7 µM,0.85,–
Cc1ccccc1C(=O)Nc1nc(NC(=O)c2ncco2)n(-c2ccccc2)n1 [Compound 10],–,–,30 µM,0.45,–
Cc1ccccc1C(=O)Nc1nc(-c2cccc(F)n2)nn1-c1ccccc1 [Compound 123],–,–,7 µM,1.4,–
C#Cc1cccc(C(=O)Nc2nc(NC(=O)c3ccc(N=[N+]=[N-])cc3)n(-c3ccccc3)n2)c1 [Compound 18],–,–,1 µM and 3 µM,1.72,–
C#Cc1cccc(C(=O)Nc2nc(NC(=O)c3ccc(N=[N+]=[N-])cc3)nn2-c2ccccc2)c1 [Compound 12],–,–,1 µM and 3 µM,2.1,–
Cc1ccccc1C(=O)Nc1nc(NC(=O)C2CCN2)nn1-c1ccccc1 (stereo not drawn) [Compound 5],–,–,3 µM,2.18,–
